Tested on: Streptococcus mutans
Test: In vitro antibacterial properties, turbidimetric method and plate coating method
Format: cell-based
Details: bacterial absorbance after 4 h incubation and bacterial number counting
Procedure: The anti-Streptococcus mutans performance of the prepared dentin sealing materials was evaluated by a turbidimetric method and a plate coating method.

## [Cl-].[Cl-].[Sr+2] [Sr, strontium chloride]
  ability to inhibit Streptococcus mutans: ability to inhibit Streptococcus mutans
